Assay results as given in patent US20100087385A1 (priority 2006, published 2010).

Tests used:
[1] = system: IBD mice (colon injury induced by acetic acid); experiment: Experiment II: acetic acid induced IBD in mice, ammonium glycyrrhizinate; assay type: in vivo, Kuming mice; conditions: for GSH / MPO / MDA / SOD: colon homogenate; for GSH / MPO / MDA / SOD / CMDI: once per day, 10 days; for GSH: normal 0.58 ± 0.12, model 0.16 ± 0.09; for MPO: normal 3.37 ± 0.31, model 1.33 ± 0.83; for MDA: normal 10.58 ± 2.74, model 26.2 ± 5.5; for SOD: normal 707 ± 105, model 309 ± 68; for CMDI: normal 0.73 ± 0.03, model 1.75 ± 0.35
Method: Kuming mice were randomly distributed into seven groups consisting of normal control, model group, Adis positive control, monoammonium glycyrrhizinate oral administration, diammonium glycyrrhizinate oral administration, triammonium glycyrrhizinate oral administration, diammonium glycyrrhizinate injection. In Adis group, mice were provided Adis 600 mg/kg after enema, once a day. In glycyrrhizinate oral administration groups, 14 mg/kg dose of individual glycyrrhizinate was applied once per day. Normal control and model group were orally given by equal amount of normal saline daily. After seven days drug treatment, all mice except for normal control were stimulated with acetic acid to induce IBD. On day six, starvation was applied after drug treatment to all groups. On day seven, after drug treatment, mice were put to sleep with ether and the procedure of enema was performed before injecting 0.1 ml of 6% acitic acid using polyethylene tubings. Acitic acid was injected into mice through anus in depth about 1.5 cm to induce IBD. One minute after the actic acid injection, wash twice with normal saline and let the animals lie down and awake naturally. For normal control, mice were treated with equal amount of saline. Drug treatment continued to day 10 to all groups. 24 hours after the last drug treatment, the mice were sacrificed. Take and weight the whole colon, score colon organ index, and evaluate CMDI. Colon tissues were homogenized in Tris buffer and adjusted to the concentration 5% for MPO, MDA, SOD, and GSH tests.
(§1) CMDI: Cut open the mouse along the mesentery and take the whole colon. Observe peritoneal adhesion, colon ulcer, and congestion. The standard of evaluation was listed on Table 1.
(§2) Myeloperoxidase (MPO): Carefully weight tissue samples, use Tris buffer (weight to volume ratio 1:19) to prepare 5% homogenization solution by high-speed homogenizer. Handle all steps on ice. Protein concentration was determined by method Lowry and use MPO test kit.
(§3) Lipid peroxidase (MDA): TBA was used to detect MDA in the homogenization solution
Superoxide dismutase (SOD): Method of pyrogallol was used to detect the activity of SOD in the homogenization solution
(§4) Glutathione (GSH): Follow the product insert coming with the test kit to detect GSH in the samples
The total score is combined with both parts of A and B.

[2] = system: IBD mice (colon injury induced by acetic acid); experiment: Experiment I: acetic acid induced IBD in mice, glycyrrhizin and glycyrrhetinic acid; assay type: in vivo, KuMing mice; conditions: glycyrrhizin 105 mg/kg, glycyrrhetinic acid 72 mg/kg; for Inflammatory score / CMDI / GSH / MPO / MDA / SOD: once per day, 10 days; for Inflammatory score: normal 0, model 7.50 ± 0.7; for CMDI: normal 0.73 ± 0.03, model 1.75 ± 0.35; for GSH / MPO / MDA / SOD: colon homogenate; for GSH: normal 0.58 ± 0.12, model 0.16 ± 0.09; for MPO: normal 3.37 ± 0.31, model 1.33 ± 0.83; for MDA: normal 10.58 ± 2.74, model 26.2 ± 5.5; for SOD: normal 707 ± 105, model 309 ± 68; for CMDI of IBD mice decreased / MPO activity increased / inflammatory scores were lowered: once per day for ten days
Method: In Adis group, mice were provided Adis 600 mg/kg afer enema, once per day. Normal control and model groups were orally given with equal amount of normal saline daily. After seven days drug treatment, all mice except for normal control were stimulated with acetic acid to induce IBD. On day six, starvation was applied after drug treatment to all groups. On day seven, after drug treatment, mice were put to sleep with ether and the procedure of enema was performed before injecting 0.1 ml of 6% acitic acid using polyethylene tubings. Acitic acid was injected into mice through anus in depth about 1.5 cm to induce IBD. One minute after the actic acid injection, wash twice with normal saline and let the animals lay down and awake naturally. For normal control, mice were treated with equal amount of saline.
Drug treatment continued to day 10 to all groups. 24 hours after the last drug treatment, the mice were sacrificed. Take and weight the whole colon, score colon organ index, and evaluate CMDI. Colon tissues were homogenized in Tris buffer and adjusted to the concentration 5% for MPO, MDA, SOD, and GSH tests.
as §1, §2, §3
Superoxide dismutas (SOD): Method of pyrogallol was used to detect the activity of SOD in the homogenization solution
as §4
The total score is combined with both parts of A with B.

[3] = oral 14 mg/kg, once per day for ten days
[4] = injection (IP.) 14 mg/kg, once per day for ten days

| Compound | GSH ([1]; oral 14 mg/kg) | MPO ([1]; oral 14 mg/kg) | MDA ([1]; oral 14 mg/kg) | SOD ([1]; oral 14 mg/kg) | CMDI of IBD mice decreased [1, 3] [%] | MPO activity increased [1, 3] [×] | inflammatory scores were lowered [1, 3] [×] | CMDI ([1]; oral 14 mg/kg) | CMDI ([2]; IP injection) | GSH ([2]; IP injection) | MPO ([2]; IP injection) | MDA ([2]; IP injection) | GSH ([2]; oral) | MPO ([2]; oral) | MDA ([2]; oral) | CMDI of IBD mice decreased ([2]; injection (IP)) [%] | MPO activity increased ([2]; injection (IP)) [×] | inflammatory scores were lowered ([2]; injection (IP)) [×] | CMDI of IBD mice decreased ([2]; oral) [%] | MPO activity increased ([2]; oral) [×] | further results |
| --- | --- | --- | --- | --- | --- | --- | --- | --- | --- | --- | --- | --- | --- | --- | --- | --- | --- | --- | --- | --- | --- |
| CC1(C)[C@@H](O[C@H]2O[C@H](C(=O)O)[C@@H](O)[C@H](O)[C@H]2O[C@@H]2O[C@H](C(=O)O)[C@@H](O)[C@H](O)[C@H]2O)CC[C@]2(C)[C@H]3C(=O)C=C4[C@@H]5C[C@@](C)(C(=O)O)CC[C@]5(C)CC[C@@]4(C)[C@]3(C)CC[C@@H]12 [triammonium glycyrrhizinate] | 0.26 ± 0.09^ΔΔ mg/mgpro. | 1.59 ± 0.94^ΔΔ U/mgpro. | 16.88 ± 5.97^ΔΔ nmol/mgpro. | 368 ± 79^ΔΔ U/mgpro. | 14.9 | 0.20 | 1.5 | 1.49 ± 0.08^ΔΔ g/100 g | – | – | – | – | – | – | – | – | – | – | – | – | – |
| CC1(C)[C@@H](O[C@H]2O[C@H](C(=O)O)[C@@H](O)[C@H](O)[C@H]2O[C@@H]2O[C@H](C(=O)O)[C@@H](O)[C@H](O)[C@H]2O)CC[C@]2(C)[C@H]3C(=O)C=C4[C@@H]5C[C@@](C)(C(=O)O)CC[C@]5(C)CC[C@@]4(C)[C@]3(C)CC[C@@H]12 [Glycyrrhizin, glycyrrhizic acid] | – | – | – | – | – | – | – | – | 0.88 ± 0.18^ΔΔ g/100 g | 0.36 ± 0.09^ΔΔ mg/mgpro. | 5.59 ± 0.94^ΔΔ U/mgpro. | 5.08 ± 1.91^ΔΔ nmol/mgpro. | 0.33 ± 0.22^ΔΔ mg/mgpro. | 5.09 ± 0.29^ΔΔ U/mgpro. | 6.04 ± 0.89^ΔΔ nmol/mgpro. | 98.86 | 3.20 | 4 | 82.3 | 2.83 | Inflammatory score ([2]; IP injection): 1.5 ± 0.41^ΔΔ; Inflammatory score ([2]; IP injection, listed as glycyrrhizin): 1.5; SOD ([2]; IP injection): 467 ± 49^ΔΔ U/mgpro.; SOD ([2]; oral): 425 ± 12^ΔΔ U/mgpro.; inflammatory scores were lowered ([2]; oral): 4 ×; Inflammatory score ([2]; oral): 1.5 ± 0.31^ΔΔ; Inflammatory score ([2]; oral, listed as glycyrrhizin): 1.5; CMDI ([2]; oral): 0.96 ± 0.03^ΔΔ g/100 g |
| CC1(C)[C@@H](O[C@H]2O[C@H](C(=O)O)[C@@H](O)[C@H](O)[C@H]2O[C@@H]2O[C@H](C(=O)O)[C@@H](O)[C@H](O)[C@H]2O)CC[C@]2(C)[C@H]3C(=O)C=C4[C@@H]5C[C@@](C)(C(=O)O)CC[C@]5(C)CC[C@@]4(C)[C@]3(C)CC[C@@H]12.N [monoammonium glycyrrhizinate] | 0.32 ± 0.12^ΔΔ mg/mgpro. | 2.99 ± 0.26^ΔΔ U/mgpro. | 16.14 ± 5.81^ΔΔ nmol/mgpro. | 412 ± 112^ΔΔ U/mgpro. | 14.3 | 1.25 | 1.5 | 1.50 ± 0.03^Δ g/100 g | – | – | – | – | – | – | – | – | – | – | – | – | – |
| CC1(C)[C@@H](O[C@H]2O[C@H](C(=O)O)[C@@H](O)[C@H](O)[C@H]2O[C@@H]2O[C@H](C(=O)O)[C@@H](O)[C@H](O)[C@H]2O)CC[C@]2(C)[C@H]3C(=O)C=C4[C@@H]5C[C@@](C)(C(=O)O)CC[C@]5(C)CC[C@@]4(C)[C@]3(C)CC[C@@H]12.N.N [diammonium glycyrrhizinate] | 0.49 ± 0.14^ΔΔ mg/mgpro. | 2.93 ± 0.26^ΔΔ U/mgpro. | 8.32 ± 5.04^ΔΔ nmol/mgpro. | 505 ± 132^ΔΔ U/mgpro. | 39.4 | 1.20 | 1.73 | 1.06 ± 0.31^ΔΔ g/100 g | – | – | – | – | – | – | – | – | – | – | – | – | GSH ([1]; injection 14 mg/kg): 0.27 ± 0.13^ΔΔ mg/mgpro.; MPO ([1]; injection 14 mg/kg): 3.55 ± 0.45^ΔΔ U/mgpro.; MDA ([1]; injection 14 mg/kg): 7.85 ± 3.55^ΔΔ nmol/mgpro.; SOD ([1]; injection 14 mg/kg): 533 ± 101^ΔΔ U/mgpro.; CMDI ([1]; injection 14 mg/kg): 0.97 ± 0.18^ΔΔ g/100 g; CMDI of IBD mice decreased [1, 4]: 45.7%; MPO activity increased [1, 4]: 1.67 ×; inflammatory score was lowered [1, 4]: 2.75 × |
| CC1(C)C2CC[C@]3(C)C(C(=O)C=C4C5C[C@@](C)(C(=O)O)CC[C@]5(C)CCC43C)[C@@]2(C)CC[C@@H]1O (some centres unmarked) [glycyrrhetinic acid] | – | – | – | – | – | – | – | – | 1.07 ± 0.28^ΔΔ g/100 g | 0.31 ± 0.08^ΔΔ mg/mgpro. | 4.51 ± 0.35^ΔΔ U/mgpro. | 5.85 ± 1.33^ΔΔ nmol/mgpro. | 0.31 ± 0.08^ΔΔ mg/mgpro. | 3.48 ± 0.46^ΔΔ U/mgpro. | 4.56 ± 2.28^ΔΔ nmol/mgpro. | 63.55 | 2.39 | 2.75 | 57.65 | 1.62 | CMDI ([2]; oral): 1.11 ± 0.41^ΔΔ g/100 g |
